Data set [1] is described as follows: clinical. Conditions: both, human, in vivo.
Procedure: (§1) This was a Phase 1, non-randomized, open-label, 2-cohort, cross-over, DDI study in healthy male and female subjects.
(§2) In Cohort 1, a single oral dose 100 mg/25 mg levodopa-carbidopa (Sinemet®) IR was administered alone on Day 1.
The conditions of data set [2]: both, human, in vivo.
Procedure: as §1, §2
Data set [3] in a line: clinical. Conditions: both, human, in vivo, geometric mean t1/2.
Data set [4] is described as follows: clinical. Conditions: both, human, in vivo. The source holds these as a separate data set.
Procedure: as §1
(§3) In Cohort 2, a single oral dose 100 mg/25 mg levodopa-benserazide (Madopar®) IR was administered alone on Day 1.
The conditions of data set [5]: both, human, in vivo. This is another data set of the same source.
The conditions of data set [6]: both, human, in vivo. This is another data set of the same source.
Procedure: as §1, §3
A short description of data set [7]: BIA 28-6156-105: safety and tolerability. Conditions: 400 mg moxifloxacin.
The nature of data set [8]: BIA 28-6156-105: continuous cardiac monitoring, concentration-QTc analysis. Conditions: 400 mg moxifloxacin, positive control.
The nature of data set [9]: BIA 28-6156-107 DDI: effect of single-dose Compound A on single-dose PK of carbidopa-levodopa. Conditions: both, human, in vivo, oral; for Tmax: Median Tmax, carbidopa.
Data set [10] in a line: BIA 28-6156-110 DDI, metformin portion. Type of data set: in vivo, human. The method, then:
In Cohort 2, a single oral dose 500 mg metformin was administered alone on Day 1. From Day 2 to Day 7, a single daily dose of 60 mg Compound A was administered.

Data set [11] is described as follows: BIA 28-6156-110 DDI, rosuvastatin portion. Format: in vivo, human. The method, then:
In Cohort 1, a single oral dose of 10 mg rosuvastatin was administered alone on Day 1. No drug was administered on Day 2. From Day 3 to Day 8, a single daily dose of 60 mg Compound A was administered.

The conditions of data set [12]: Parkinson's patients with a GBA-1 mutation; Peterschmitt et al., 2021; cited from earlier work.
[13] abbreviates: 500 mg metformin + Compound A (60 mg daily) vs metformin alone.
Setting [14] is: 10 mg rosuvastatin + Compound A (60 mg daily) vs rosuvastatin alone.

Where two headings read alike, the source gives them in different places.

The term half-life denotes the time needed for the level to fall by half in the phase considered. A higher half-life goes with slow decline. As usually defined, the AUC(0-t) is the area under the concentration-time curve up to a stated or last time point. `N[C@@H](Cc1ccc(O)c(O)c1)C(=O)O` [Levodopa, levodopa] showed a half-life in “clinical [1]” of 1.69 h. In [2], the AUC(0-t) turned out to be 1534 ng·h/mL and the Tmax came to 1.00 h. Besides, the half-life in the data set “clinical [3]” was 1.7 h. For the same molecule, the Tmax in the data set “clinical [4]” turned out to be 0.77 h. The AUC(0-t) in “clinical [4]” (AUC0-t) was 1940 ng·h/mL. Besides, in data set [5], the “AUC0-inf ratio of geometric least squares means (point estimate)” value is given as 1.035, the “AUC0-last ratio of geometric least squares means (point estimate)” value is 1.048, the “Cmax ratio of geometric least squares means (point estimate)” value is 1.061 and the “Median Tmax” value was found to be 0.5 h. The molecule further returned a t1/2 in data set [6] of 2.26 h.
As to `COc1c(N2C[C@@H]3CCCN[C@@H]3C2)c(F)cc2c(=O)c(C(=O)O)cn(C3CC3)c12` [Moxifloxacin, moxifloxacin, reference compound], the “Grade 3 (severe) TEAE considered related” value in [7] is given as “hypersensitivity”. For the same molecule, the “effect on ΔΔQTcF (concentration-QTc analysis)” value in [8] is “above 5 msec”.
Consider `C[C@@](Cc1ccc(O)c(O)c1)(NN)C(=O)O` [carbidopa], for which, in [5], the “AUC0-last ratio of geometric least squares means (point estimate)” value was 0.909, the “Cmax ratio of geometric least squares means (point estimate)” value is 1.031, the “decrease of systemic exposure” value was “approximately 9%” and the “increase of maximal exposure” value is listed as “approximately 3%”. For the same molecule, the Tmax in data set [9] (carbidopa-levodopa alone) came out at 2.5 h. Further, the Tmax in [9] (coadministered with Compound A) came to 2 h. In data set [9] (geometric mean t1/2, carbidopa, both treatment conditions), this molecule yielded a half-life of 2 to 2.3 h.
As to `CN(C)C(=N)N=C(N)N` [metformin], in data set [10] (setting [13]), the “AUC0-inf ratio of geometric least squares mean, estimate” value is recorded as 0.940; the “AUC0-t ratio of geometric least squares mean, estimate” value is listed as 0.938; the “Cmax ratio of geometric least squares mean, estimate” value is 0.950. Moreover, the “effect of multiple oral doses of Compound A on metformin PK” value in data set [10] (single oral dose of metformin) is listed as “no effect”.
Take `CC(C)c1nc(N(C)S(C)(=O)=O)nc(-c2ccc(F)cc2)c1/C=C/[C@@H](O)C[C@@H](O)CC(=O)O` [rosuvastatin]: in data set [11] (setting [14]), the “AUC0-inf ratio of geometric least squares mean, estimate” value is given as 3.041; the “AUC0-t ratio of geometric least squares mean, estimate” value is given as 3.437; the “Cmax ratio of geometric least squares mean, estimate” value is given as 3.467. Also, in data set [11] (with Compound A vs alone), the “increase of rosuvastatin PK” value is “about 3 fold”; the “increased maximal exposure to rosuvastatin, Cmax” value is reported as 347%; the “increased systemic exposure to rosuvastatin, AUC0-inf” value is reported as 304%; the “increased systemic exposure to rosuvastatin, AUC0-t” value was 344%.
With `CC(C)(NC(=O)O[C@@H]1CN2CCC1CC2)c1csc(-c2ccc(F)cc2)n1` [venglustat], the “impact on slowing the progression of the condition” value in [12] is reported as “no impact on slowing the progression of the condition”.
